Target: T1, ACAT-1 (Homo sapiens, UniProt P35610)
T1 construct: To 2.6 ml of broken homogenate having a protein concentration of 2.5 mg/ml was added 0.65 ml of 5×DOC/PC; endogenous in cells; host or cells: SW-13 cells (human adrenal cortical adenocarcinoma); broken homogenate solubilised with deoxycholate/PC and reconstituted into cholesterol/PC vesicles
T1 sequence (P35610 1-550): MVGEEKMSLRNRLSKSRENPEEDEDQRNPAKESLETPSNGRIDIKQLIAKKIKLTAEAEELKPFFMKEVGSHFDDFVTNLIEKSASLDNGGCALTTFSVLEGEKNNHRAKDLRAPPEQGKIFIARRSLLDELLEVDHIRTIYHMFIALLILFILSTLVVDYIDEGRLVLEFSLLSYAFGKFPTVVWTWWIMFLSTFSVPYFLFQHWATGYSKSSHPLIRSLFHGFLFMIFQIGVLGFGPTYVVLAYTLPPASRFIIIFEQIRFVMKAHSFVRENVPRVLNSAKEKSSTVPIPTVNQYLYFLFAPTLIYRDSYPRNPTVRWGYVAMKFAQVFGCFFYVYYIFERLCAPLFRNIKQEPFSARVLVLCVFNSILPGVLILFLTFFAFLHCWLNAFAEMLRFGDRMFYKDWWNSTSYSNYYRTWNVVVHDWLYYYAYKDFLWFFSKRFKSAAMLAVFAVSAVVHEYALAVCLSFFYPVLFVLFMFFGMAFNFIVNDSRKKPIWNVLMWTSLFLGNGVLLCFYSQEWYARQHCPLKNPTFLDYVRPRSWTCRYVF
Assay: ACAT-1 Inhibitory Action Test 1 (reconstituted vesicle assay, enzyme solution from SW-13 cell broken homogenate)
Assay type: biochemical
Settings: test substance 1×10^−3 mol/l in DMSO, 2.5 μl added to 200 μl enzyme solution + 50 μl substrate solution; 37° C., 30 minutes; decrease in total cholesterol ester vs DMSO control
Experimental: SW-13 cells (derived from human adrenal cortical adenocarcinoma) were cultured on a culture plate until confluence in an L-15 culture medium containing 10% fetal bovine serum (FBS) in a carbon dioxide incubator.
Broken homogenates were collected according to a published procedure (hypotonic shock and scrapping method, Anal. Biochem., 116, 298–302 (1981)), subjected to protein quantitation (Bradford method), and stored at −80° C. till use.
Chol/PC vesicles (Chol/PC=3.9 mM/12.8 mM) were prepared according to a method described by Chang et al. (Chang, T. Y. et al., Anal. Biochem., 157, 323–330 (1986)). […]
With respect to the hexane phase in the glass test tube, the solvent was removed under a nitrogen gas stream. […] Using a bio-imaging analyzer (BAS-2000II, manufactured by Fuji Photo Film Co., Ltd.), the ^14C of the cholesterol ester fraction was quantified.
With respect to the hexane phase in the scintillation vial, ^3H was counted after adding a scintillation cocktail. Based on the amount of ^3H in the [^3H]-cholesteryl oleate-containing ethanol, the extraction efficiency was calculated. Based on the extraction efficiency, the amount of total cholesterol ester produced was calculated. In comparison with the control, decrease in the amount of the total cholesterol ester produced when a test substance was used was expressed as ACAT-1 enzyme inhibition (%).

## diethyl 4-(7-chloro-3-N-(4-methyl -benzylideneamin)-4(3H)-quinazolinon-2-yl)benzylphosphonate [Example 1]
  ACAT-1 enzyme inhibition (%): 75%

— patent publication US7259155B2, “Phosphonic diester derivatives” (Otsuka Pharmaceutical Factory, Inc., priority 2004, dated 2007)
